In patent US12371454B2, “Cyclic peptide compound having Kras inhibitory action” (priority 2019, dated 2025):
Starred links: 1 amine or outer side, 2 acyl side, 3 side chain; linkers in the order of their positions; H or OH if unused. Positions of bridges follow the written chain, without caps; N, C: chain ends. Non-standard residues stand in square brackets, D forms with d. Residues, ends and D or L forms follow the SMILES beside them. *: point of attachment. hPhe(3-Cl-4-CF3) = N[C@@H](CCc1ccc(C(F)(F)F)c(Cl)c1)C(=O)O; hPhe(3-F,4-CF3) = N[C@@H](CCc1ccc(C(F)(F)F)c(F)c1)C(=O)O; X74 = O=C([C@H](CCc1cc(Cl)c(Cl)c(Cl)c1)N[*:1])[*:2]; NMeGly(cPent) = CN[C@H](C(=O)O)C1CCCC1; NMe4Pal = CN[C@@H](Cc1ccncc1)C(=O)O; NMeCha = CN[C@@H](CC1CCCCC1)C(=O)O; Hyp = O=C(O)[C@@H]1C[C@@H](O)CN1; NMeAhp(2) = CCCCC[C@H](NC)C(=O)O; NMeChg = CN[C@H](C(=O)O)C1CCCCC1; NMeI = CC[C@H](C)[C@H](NC)C(=O)O; NMeD = CN[C@@H](CC(=O)O)C(=O)O; NMeL = CN[C@@H](CC(C)C)C(=O)O; NMeV = CN[C@H](C(=O)O)C(C)C; d(β3hA) = C[C@@H](N)CC(=O)O; NMeS = CN[C@@H](CO)C(=O)O; Morpholide = C1CN(*)CCO1; NMeA = CN[C@@H](C)C(=O)O; Piperidide = C1CCN(*)CC1; dNMeA = CN[C@H](C)C(=O)O; Ac5c = NC1(C(=O)O)CCCC1; Aze = O=C(O)[C@@H]1CCN1; Cyclobutyl = C1CC(*)C1; Sar = CNCC(=O)O

System: Human pancreatic cancer cell line AsPC-1
Assay: Measurement of AsPC-1 cell growth inhibition (AsPC-1 CGI)
Type: cell-based
Conditions: 96 h
Summary of the method: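 AsPC-1 cells in 15% FBS RPMI-1640 were exposed to test compound for 96 hours at 37° C, with CellTiter-Glo as endpoint.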

First: CCO[C@@H]1C[C@H]2C(=O)NC3(CCCC3)C(=O)N(C)[C@@H](CC(C)C)C(=O)N(C)[C@H](C(=O)N3CCOCC3)CC(=O)N(C)[C@@H](CC(C)C)C(=O)N[C@@H]([C@@H](C)CC)C(=O)N(C)CC(=O)N(C)CC(=O)N(C)[C@@H](CC3CCCCC3)C(=O)N(C)CC(=O)N[C@@H](CCc3ccc(C(F)(F)F)c(Cl)c3)C(=O)N2C1 [Compound 1785] ([NMeL]I[Sar][Sar][NMeCha][Sar][hPhe(3-Cl-4-CF3)][Hyp](Et)[Ac5c][NMeL][NMeD]-Morpholide; lactam N-11)
Second: CC[C@H](C)[C@@H]1NC(=O)[C@H](CC(C)C)N(C)C(=O)C[C@@H](C(=O)N2CCCCC2)N(C)C(=O)[C@H](C2CCCCC2)N(C)C(=O)C2(CCCC2)NC(=O)[C@H](Cc2ccncc2)N(C)C(=O)[C@H](CCc2ccc(C(F)(F)F)c(Cl)c2)NC(=O)CN(C)C(=O)[C@H](CC2CCCCC2)N(C)C(=O)CN(C)C(=O)CN(C)C1=O [Compound 36] ([NMeL]I[Sar][Sar][NMeCha][Sar][hPhe(3-Cl-4-CF3)][NMe4Pal][Ac5c][NMeChg][NMeD]-Piperidide; lactam N-11)
The IC50 of the first is lower: 50 to 100 nM for the first, 100 to 500 nM for the second. The first is the more potent here.

First: CC[C@H](C)[C@@H]1NC(=O)[C@H](COC2CCC2)N(C)C(=O)C[C@@H](C(=O)N2CCCCC2)N(C)C(=O)[C@H](C(C)C)N(C)C(=O)C2(CCCC2)NC(=O)[C@@H]2CCCN2C(=O)[C@H](CCc2ccc(C(F)(F)F)c(Cl)c2)NC(=O)CN(C)C(=O)[C@H](CC2CCCCC2)N(C)C(=O)[C@@H]2CCN2C(=O)[C@H](C)N(C)C1=O [Compound 755] ([NMeS](Cyclobutyl)I[NMeA][Aze][NMeCha][Sar][hPhe(3-Cl-4-CF3)]P[Ac5c][NMeV][NMeD]-Piperidide; lactam N-11)
Second: CC[C@H](C)[C@@H]1NC(=O)[C@H](CC(C)C)N(C)C(=O)C[C@@H](C(=O)N2CCCCC2)N(C)C(=O)[C@H]([C@@H](C)CC)N(C)C(=O)C2(CCCC2)NC(=O)[C@@H]2CCCN2C(=O)[C@H](CCc2ccc(C(F)(F)F)c(Cl)c2)NC(=O)CN(C)C(=O)[C@H](C2CCCC2)N(C)C(=O)[C@@H]2CCN2C(=O)[C@H](C)N(C)C1=O [Compound 807] ([NMeL]I[NMeA][Aze][NMeGly(cPent)][Sar][hPhe(3-Cl-4-CF3)]P[Ac5c][NMeI][NMeD]-Piperidide; lactam N-11)
The IC50 of the first is higher: 100 to 500 nM for the first, 20 to 50 nM for the second. The second is the more potent here.

`CC[C@H](C)[C@@H]1NC(=O)[C@H](C)N(C)C(=O)C[C@@H](C(=O)N2CCCCC2)N(C)C(=O)[C@H](C2CCCCC2)N(C)C(=O)C2(CCCC2)NC(=O)[C@@H]2CCCN2C(=O)[C@H](CCc2cc(Cl)c(Cl)c(Cl)c2)NC(=O)CN(C)C(=O)[C@H](CC2CCCCC2)N(C)C(=O)CN(C)C(=O)CN(C)C1=O` [Compound 2059, (3S,9S,18S,21S,25S,28S,34S)-28-cyclohexyl-9-(cyclohexylmethyl)-7,10,13,16,21,22,26,29-octamethyl-18-[(1S)-1-methylpropyl]-25-(piperidine-1-carbonyl)-3-[2-(3,4,5-trichlorophenyl)ethyl]spiro[1,4,7,10,13,16,19,22,26,29,32-undecazabicyclo[32.3.0]heptatriacontane-31,1′-cyclopentane]-2,5,8,11,14,17,20,23,27,30,33-undecone] ([NMeA]I[Sar][Sar][NMeCha][Sar][X74]P[Ac5c][NMeChg][NMeD]-Piperidide; lactam N-11) and `CC[C@H](C)[C@@H]1NC(=O)[C@H](CC(C)C)N(C)C(=O)C[C@@H](C(=O)N2CCCCC2)N(C)C(=O)[C@H](C(C)C)N(C)C(=O)C2(CCCC2)NC(=O)[C@@H]2CCCN2C(=O)[C@H](CCc2ccc(C(F)(F)F)c(F)c2)NC(=O)CN(C)C(=O)[C@H](CC2CCCCC2)N(C)C(=O)[C@@H]2CCN2C(=O)CN(C)C1=O` [Compound 599] ([NMeL]I[Sar][Aze][NMeCha][Sar][hPhe(3-F,4-CF3)]P[Ac5c][NMeV][NMeD]-Piperidide; lactam N-11) fall in the same range of IC50: 100 to 500 nM for the first, 100 to 500 nM for the second.

`CC[C@H](C)[C@@H]1NC(=O)[C@H](C)N(C)C(=O)C[C@@H](C)NC(=O)[C@H](C2CCCC2)N(C)C(=O)C2(CCCC2)NC(=O)[C@@H]2CCCN2C(=O)[C@H](CCc2ccc(C(F)(F)F)c(Cl)c2)NC(=O)[C@@H](C)N(C)C(=O)[C@H](C(C)C)N(C)C(=O)[C@@H]2CCN2C(=O)[C@H](C)N(C)C1=O` [Compound 1066] (cyclo([Ac5c][NMeGly(cPent)][d(β3hA)][NMeA]I[NMeA][Aze][NMeV][dNMeA][hPhe(3-Cl-4-CF3)]P)) and `CC[C@H](C)[C@@H]1NC(=O)[C@H](C2CCCCC2)N(C)C(=O)C[C@@H](C)NC(=O)[C@H](C(C)C)N(C)C(=O)C2(CCCC2)NC(=O)[C@@H]2CCCN2C(=O)[C@H](CCc2ccc(C(F)(F)F)c(Cl)c2)NC(=O)CN(C)C(=O)[C@H](CC2CCCCC2)N(C)C(=O)[C@@H]2CCN2C(=O)[C@H](C)N(C)C1=O` [Compound 873] (cyclo([Ac5c][NMeV][d(β3hA)][NMeChg]I[NMeA][Aze][NMeCha][Sar][hPhe(3-Cl-4-CF3)]P)) fall in the same range of IC50: 100 to 500 nM for the first, 100 to 500 nM for the second.

With `CCCCC[C@H]1C(=O)N(C)CC(=O)N[C@@H](CCc2ccc(C(F)(F)F)c(Cl)c2)C(=O)N2CCC[C@H]2C(=O)NC2(CCCC2)C(=O)N(C)[C@@H](C(C)C)C(=O)N(C)[C@H](C(=O)N2CCCCC2)CC(=O)N(C)[C@@H](CC(C)C)C(=O)N[C@@H]([C@@H](C)CC)C(=O)N(C)[C@@H](C)C(=O)N2CC[C@H]2C(=O)N1C` [Compound 1854] ([NMeL]I[NMeA][Aze][NMeAhp(2)][Sar][hPhe(3-Cl-4-CF3)]P[Ac5c][NMeV][NMeD]-Piperidide; lactam N-11) the IC50 was 100 to 500 nM.
